Reference: publication PMC5891386 (Bioorganic & medicinal chemistry, 2018)

What was measured:
[1] = tested on: PHGDH; settings: cited from earlier work
[2] = Aqueous kinetic solubility; assay type: physicochemical; settings: pH 7.4
[3] = tested on: aspartate levels in cells; settings: irrespective of PHGDH levels; cited from earlier work

SMILES	efficacy in vivo [1]	Aqueous Solubility (kinetic) [2]	also measured
CCNC(=S)N/N=C/c1ccc(-c2ccc(C(=O)O)c(Cl)c2)o1 [PKUMDL-WQ-2201]	efficacious in vivo		
Cc1cc(C)nc(NC(=S)N2CCCC(Nc3ccc(C(F)(F)F)cc3)C2)c1 (centres unmarked) [Compound 33]		below the limits of quantitation	
O=C(N/N=C/c1cc([N+](=O)[O-])ccc1O)c1ccc(O)cc1O [PKUMDL-WQ-2101]	efficacious in vivo		
Cc1cc(C)nc(NC(=S)N2CCN(c3ccc(C(F)(F)F)cn3)CC2)c1 [Compound 27, N-(4,6-dimethylpyridin-2-yl)-4-(5-(trifluoromethyl)pyridin-2-yl)piperazine-1-carbothioamide]			aspartate levels in cells [3]: reduce aspartate levels in cells
Cc1cc(C)nc(NC(=S)N2CCC(Nc3cccc(C(F)(F)F)c3)CC2)c1 [Compound 37]		below the limits of quantitation	
